These results are taken from patent publication US9890111B2, “Crystal structure of bifunctional transglycosylase PBP1b from E. coli and inhibitors thereof” (Academia Sinica, priority 2008, dated 2018).

Converted amounts (≈) assume the structure as drawn. Where only a bound is given, the exact number is not on record here.

The first assay has as its system Staphylococcus aureus (ATCC29213, SA). In words: Minimal inhibitory concentration (MIC), SA. It counts as cell-based. The note with it: Staphylococcus aureus ATCC29213. As for the experimental part:
(§1) The minimal inhibitory concentration (MIC) of tested compounds was determined following the NCCLS standard. The experiments were conducted in 96-well microtiter plates using two-fold dilutions in Muller-Hilton broth with (Streptococcus pneumonia) or without blood (Bacillus subtilis, Enterococcus faecalis, Staphylococcus aureus, Escherichia coli, MRSA, Actinetobacter baumannii, Pseudomonas aeruginosa, Stenotrophomonas maltophilia, and Mycobacterium smegmatis). Exponentially growing cells at 5×10^5 cells/ml were incubated with test compounds at various concentrations. After an 18 h to 24 h incubation at 37° C., MIC was determined as the minimal concentration of the compound that prevents bacterial growth.
For `Cc1ccc(C(C)C)c(Oc2ccc(Cl)cc2NC(=O)c2cc(I)cc(I)c2O)c1` [Compound 208], the “MIC SA” value came out at 4 µg/mL (≈ 6.18 µM).
Consider `Cc1ccc(C(C)C)c(Oc2ccc(Cl)cc2NC(=O)c2cc(Cl)cc(Cl)c2O)c1` [Compound 209], for which the “MIC SA” value came out at 1 µg/mL (≈ 2.15 µM).
Still for that read-out and setting: the same measure for `O=C(Nc1ccc(Cl)cc1)c1cc(Br)cc(Br)c1O` [KTS-9]: 1 µg/mL (≈ 2.47 µM).

The assay is the same for the next values; noted with them: Staphylococcus aureus, ATCC29213, Staphylococcus aureus ATCC29213; read-out: MIC SA.
`O=C(Nc1cc(Cl)c(Cl)c(Cl)c1)c1cc(Br)cc(Br)c1O` [Compound 001]: the minimal inhibitory concentration (MIC) (commonly the least concentration at which growth counts as inhibited) was at most 0.03 µg/mL.
The same measure, in the same setting: in the case of `O=C(Nc1ccc(Cl)cc1)c1cc(Br)cc(Br)c1O` [Compound 118] it was 1 µg/mL (≈ 2.47 µM).
Same read-out and setting: in the case of `O=C(Nc1ccc(O)cc1)c1cc(Br)cc(Br)c1O` [KTS-1] it was 32 µg/mL (≈ 82.7 µM); in that of `O=C(Nc1ccccc1O)c1cc(Br)cc(Br)c1O` [KTS-3], 4 µg/mL (≈ 10.3 µM).
On to `Cc1ccc(NC(=O)c2cc(Br)cc(Br)c2O)cc1Cl` [KTS-7], for which the minimum inhibitory concentration (MIC) turned out to be 1 µg/mL (≈ 2.38 µM).

The assay is the same for the next values; noted with them: Staphylococcus aureus, ATCC29213, read-out: MIC SA.
In the case of `O=C(Nc1ccc(Cl)c(Cl)c1)c1cc(Cl)cc(Cl)c1O` [Compound 003], the minimum inhibitory concentration (MIC) came to 0.25 µg/mL (≈ 0.712 µM).

A further assay relates to Escherichia coli (ATCC 25922, EC). The assay is described as follows: Minimal inhibitory concentration (MIC), EC. In kind it is cell-based. The note with it: ATCC25922; Escherichia coli ATCC 25922; read-out: MIC EC. As for the experimental part:
as §1
As for `O=C(Nc1cc(Cl)c(Cl)c(Cl)c1)c1cc(Br)cc(Br)c1O` [Compound 001], the MIC came to 16 µg/mL (≈ 33.7 µM).
Regarding `O=C(Nc1ccc(Cl)cc1)c1cc(Br)cc(Br)c1O` [Compound 118], the minimum inhibitory concentration (MIC) is 128 µg/mL (≈ 316 µM).

Staying with this assay, now noted: Escherichia coli, ATCC25922, read-out: MIC EC.
As to `O=C(Nc1ccc(Cl)c(Cl)c1)c1cc(Cl)cc(Cl)c1O` [Compound 003], the MIC was determined as 32 µg/mL (≈ 91.2 µM).

The next assay deals with Mycobacterium smegmatis (ATCC11565, MS). In words: Minimal inhibitory concentration (MIC), MS. It counts as cell-based. The note with it: Mycobacterium smegmatis ATCC11565. As for the experimental part:
as §1
On to `Cc1ccc(C(C)C)c(Oc2ccc(Cl)cc2NC(=O)c2cc(I)cc(I)c2O)c1` [Compound 208], for which the “MIC MS” value came to 2 µg/mL (≈ 3.09 µM).
Take `Cc1ccc(C(C)C)c(Oc2ccc(Cl)cc2NC(=O)c2cc(Cl)cc(Cl)c2O)c1` [Compound 209]: the “MIC MS” value turned out to be 0.5 µg/mL (≈ 1.08 µM).
On the same count and under the same terms, in the case of `O=C(Nc1ccc(Cl)cc1)c1cc(Br)cc(Br)c1O` [KTS-9] it was 2 µg/mL (≈ 4.93 µM).

The same assay, now with this note: Mycolicibacterium smegmatis, ATCC11565, Mycobacterium smegmatis ATCC11565; read-out: MIC MS.
As for `O=C(Nc1cc(Cl)c(Cl)c(Cl)c1)c1cc(Br)cc(Br)c1O` [Compound 001], the minimum inhibitory concentration (MIC) was at most 0.03 µg/mL.
The same measure, in the same setting: in the case of `O=C(Nc1ccc(Cl)cc1)c1cc(Br)cc(Br)c1O` [Compound 118] it was 1 µg/mL (≈ 2.47 µM); in that of `O=C(Nc1ccc(O)cc1)c1cc(Br)cc(Br)c1O` [KTS-1], 16 µg/mL (≈ 41.3 µM).
With `O=C(Nc1ccccc1O)c1cc(Br)cc(Br)c1O` [KTS-3], the MIC is 4 µg/mL (≈ 10.3 µM).
Still for that read-out and setting: the same measure for `Cc1ccc(NC(=O)c2cc(Br)cc(Br)c2O)cc1Cl` [KTS-7]: 1 µg/mL (≈ 2.38 µM).

Staying with this assay, now noted: Mycolicibacterium smegmatis, ATCC11565, read-out: MIC MS.
Consider `O=C(Nc1ccc(Cl)c(Cl)c1)c1cc(Cl)cc(Cl)c1O` [Compound 003], for which the minimum inhibitory concentration (MIC) was determined as 0.06 µg/mL (≈ 0.171 µM).

For the next assay, the target named is T1, penicillin-binding protein 1b from E. coli (transglycosylase) (Escherichia coli, UniProt P02919).
T1 construct: PBP1b[58-804] was amplified from E. coli genomic DNA and cloned into the expression vector pET15b; His6 (N, cleaved yes); made in house; host or cells: E. coli BL21(DE3)
T1 sequence (P02919 58-804): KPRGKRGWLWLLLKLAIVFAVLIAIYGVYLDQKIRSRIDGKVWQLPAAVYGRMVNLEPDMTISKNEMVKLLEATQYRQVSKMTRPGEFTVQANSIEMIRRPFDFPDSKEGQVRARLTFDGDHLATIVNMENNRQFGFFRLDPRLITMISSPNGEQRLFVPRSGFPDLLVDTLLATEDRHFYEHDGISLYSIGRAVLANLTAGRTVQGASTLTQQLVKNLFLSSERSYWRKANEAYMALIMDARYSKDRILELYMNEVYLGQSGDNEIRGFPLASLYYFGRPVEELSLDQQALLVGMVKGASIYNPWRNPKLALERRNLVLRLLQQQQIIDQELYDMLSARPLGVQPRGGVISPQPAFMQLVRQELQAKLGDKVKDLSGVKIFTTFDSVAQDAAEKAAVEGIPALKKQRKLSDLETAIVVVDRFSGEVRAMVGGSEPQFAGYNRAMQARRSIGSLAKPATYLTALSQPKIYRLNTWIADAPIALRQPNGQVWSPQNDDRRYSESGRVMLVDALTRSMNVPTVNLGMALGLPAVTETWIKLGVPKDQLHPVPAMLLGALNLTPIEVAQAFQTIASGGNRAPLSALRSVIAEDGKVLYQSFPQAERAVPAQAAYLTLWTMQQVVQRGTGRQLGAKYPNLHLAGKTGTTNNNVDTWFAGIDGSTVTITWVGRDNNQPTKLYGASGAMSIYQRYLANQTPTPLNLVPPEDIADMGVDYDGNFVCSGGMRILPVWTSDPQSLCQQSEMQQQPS
The assay is described as follows: Lipid II polymerization / transglycosylase (TG) activity assay. The note with it: 25 μM compound; TG activity remaining (0% = full inhibition). In kind it is biochemical. As for the experimental part:
Lipid II polymerization assays were carried out by incubating 100 μM fluorophore-labeled lipid II and penicillin-binding protein 1b from E. coli in tubes containing 10 ng/μL N-acetyl muramidase in 50 mM Tris.HCl (pH 8.0), 10 mM MgCl2, 0.1% Triton X-100, 10% DMSO, and 15% MeOH for 30 minutes (Van Nieuwenhze et al. J Am Chem Soc 2002, 124, 3656.). The fluorophore can be dansyl chloride, NBD, BODIPY, fluorescein. Reaction supernatants were then injected onto an anion-exchange HPLC column (SAX1, Supelco Co.) and eluted with a linear gradient of ammonium acetate (20 mM to 0.5 M) in methanol. The eluant was monitored for fluorescence with λex=466 nm and λem=535 nm.
Purified protein was concentrated in 20 mM Tris-HCl (pH 8.0), 300 mM NaCl, and 1 mM DDM. Instead of using Dansyl lipid II, 6-(N-(7-nitrobenz-2-oxa-1,3-diazol-4-yl)amino) hexanoyl (NBD)-labeled Lipid II was prepared as described (Taubes G (2008) Science 321:356-361; Payne D J (2008) Science 321:1644-1645) and used as a substrate to measure TG enzymatic activity, with approach similar to what has been described previously (Holtje J V (1998) Microbiol Mol Biol Rev 62:181-203). Assays were carried out by using the following condition: NBD-Lipid II, 20 nM protein, 50 mM Tris HCl (pH 8.0), 10 mMCaCl2, 0.085% decyl PEG (Anatrace), and 15% MeOH at 37° C. for 0, 1, 3, 5, 7, 9, 20, and 30 min. The concentration of NBD-Lipid II was varied from 1 to 100 μM to determine the rate of the TG activity. After the reaction, 200 μM moenomycin was added to stop the reaction, and 13 μM muramidase (Sigma-Aldrich) was added to digest the TG products to result in NBD-Lipid II without lipid tails. The fluorescent signal decrease of substrate and increase of NBD-Lipid II without lipid tails were detected by anion-exchange column SAX1 (Supelco) on HPLC (Hitachi). The elution procedures was a linear gradient of ammonium acetate (20 mM to 1 M) in MeOH monitored at λexcitation=466 nm and λemission=535 nm. The kinetic parameter was estimated by following the Michaelis-Menten equation. To investigate the importance of transmembrane (TM) helix, PBP1b and PBP1bΔTM (residues Met-1 to Leu-87 were removed) were extracted with the buffer containing 20 mM Tris-HCl (pH 8.0), 300 mM NaCl, and 13 mM FOS-CHOLINE-14 (Anatrace). The protein was purified by nickel chelation chromatography in the presence of 1 mM DDM. The activity assay was carried out by using the following condition: 12 μM NBD-Lipid II, 20 nM protein, 50 mM Tris-HCl (pH 8.0), 10 mM CaCl2, 0.085% decyl PEG, and 15% MeOH at 37° C. for time 0, 1, 3, 5, 7, 9, 20, and 30 min. The initial velocity was used to compare the activity of full-length PBP1b and PBP1bΔTM.
`Cc1ccc(C(C)C)c(Oc2ccc(Cl)cc2NC(=O)c2cc(I)cc(I)c2O)c1` [Compound 208]: the “TG Activity at various concentration of cmpd: 25 μM” value stood at 100%.
Same read-out and setting: in the case of `Cc1ccc(C(C)C)c(Oc2ccc(Cl)cc2NC(=O)c2cc(Cl)cc(Cl)c2O)c1` [Compound 209] it was 60%.

Staying with this assay, now noted: 50 μM compound; TG activity remaining (0% = full inhibition).
Consider `Cc1ccc(C(C)C)c(Oc2ccc(Cl)cc2NC(=O)c2cc(I)cc(I)c2O)c1` [Compound 208], for which the “TG Activity at various concentration of cmpd: 50 μM” value amounted to 0%.
Still for that read-out and setting: the same measure for `Cc1ccc(C(C)C)c(Oc2ccc(Cl)cc2NC(=O)c2cc(Cl)cc(Cl)c2O)c1` [Compound 209]: 0%; for `O=C(Nc1ccc(Cl)cc1)c1cc(Br)cc(Br)c1O` [KTS-9]: 100%.

The same assay, now with this note: 100 μM compound; TG activity remaining (0% = full inhibition).
For the molecule `O=C(Nc1ccc(Cl)cc1)c1cc(Br)cc(Br)c1O` [KTS-9], the “TG Activity at various concentration of cmpd: 100 μM” value is on record as 100%.

The assay is the same for the next values; noted with them: read-out: TG Activity at various concentration of cmpd: 50 μM.
With `O=C(Nc1ccc(Cl)cc1)c1cc(Br)cc(Br)c1O` [Compound 118], the remaining activity at 50 µM was 100%.
Same read-out and setting: the same measure for `O=C(Nc1ccc(O)cc1)c1cc(Br)cc(Br)c1O` [KTS-1]: 70%; for `O=C(Nc1ccccc1O)c1cc(Br)cc(Br)c1O` [KTS-3]: 70%.
Consider `Cc1ccc(NC(=O)c2cc(Br)cc(Br)c2O)cc1Cl` [KTS-7], for which the remaining activity at 50 µM turned out to be 100%.

Staying with this assay, now noted: read-out: TG Activity at various concentration of cmpd: 100 μM.
As for `O=C(Nc1cc(Cl)c(Cl)c(Cl)c1)c1cc(Br)cc(Br)c1O` [Compound 001], the remaining activity at 100 µM was found to be 100%.
Same read-out and setting: in the case of `O=C(Nc1ccc(Cl)c(Cl)c1)c1cc(Cl)cc(Cl)c1O` [Compound 003] it was 100%; in that of `O=C(Nc1ccc(Cl)cc1)c1cc(Br)cc(Br)c1O` [Compound 118], 100%.
The same measure, in the same setting: the same measure for `Cc1ccc(NC(=O)c2cc(Br)cc(Br)c2O)cc1Cl` [KTS-7]: 100%.

The test system of a further assay is methicillin-resistant Staphylococcus aureus (ATCC33592, MRSA). In words: Minimal inhibitory concentration (MIC), MRSA. In kind it is cell-based. The settings on record: Staphylococcus aureus, methicillin-resistant Staphylococcus aureus ATCC33592; read-out: MIC MRSA. As for the experimental part:
as §1
For `O=C(Nc1cc(Cl)c(Cl)c(Cl)c1)c1cc(Br)cc(Br)c1O` [Compound 001], the MIC is 0.06 µg/mL (≈ 0.126 µM).
Take `O=C(Nc1ccc(O)cc1)c1cc(Br)cc(Br)c1O` [KTS-1]: the minimal inhibitory concentration (MIC) was over 32 µg/mL.
In the case of `O=C(Nc1ccccc1O)c1cc(Br)cc(Br)c1O` [KTS-3], the minimum inhibitory concentration (MIC) amounted to 4 µg/mL (≈ 10.3 µM).
Same read-out and setting: the same measure for `Cc1ccc(NC(=O)c2cc(Br)cc(Br)c2O)cc1Cl` [KTS-7]: 1 µg/mL (≈ 2.38 µM).

The assay is the same for the next values; noted with them: Staphylococcus aureus, read-out: MIC MRSA.
For the molecule `O=C(Nc1ccc(Cl)c(Cl)c1)c1cc(Cl)cc(Cl)c1O` [Compound 003], the minimal inhibitory concentration (MIC) was determined as 1 µg/mL (≈ 2.85 µM).

The assay is the same for the next values; noted with them: methicillin-resistant Staphylococcus aureus ATCC33592.
For `O=C(Nc1ccc(Cl)cc1)c1cc(Br)cc(Br)c1O` [Compound 118], the “MIC MRSA” value turned out to be 4 µg/mL (≈ 9.87 µM).
On the same count and under the same terms, the same measure for `Cc1ccc(C(C)C)c(Oc2ccc(Cl)cc2NC(=O)c2cc(I)cc(I)c2O)c1` [Compound 208]: 0.5 µg/mL (≈ 0.772 µM); for `Cc1ccc(C(C)C)c(Oc2ccc(Cl)cc2NC(=O)c2cc(Cl)cc(Cl)c2O)c1` [Compound 209]: 0.25 µg/mL (≈ 0.538 µM); for `O=C(Nc1ccc(Cl)cc1)c1cc(Br)cc(Br)c1O` [KTS-9]: 1 µg/mL (≈ 2.47 µM).
